Data from ChEMBL document CHEMBL5154852, “Design, synthesis, and biological evaluations of substituted pyrazoles as pyrrolomycin analogues against staphylococcal biofilm” (Eur J Med Chem, 2022).
Converted amounts (≈) assume the structure as drawn. “And” between values parts separate entries of the source, which are not always exact repeats. Equal entries are not always repeated. The source made the active and inactive calls. The calls are words filed in the database; no cut-off is given here.

Legend:
[1] = tested on: Staphylococcus aureus; assay: Antibacterial activity against vancomycin-intermediate Staphylococcus aureus Mu50 incubated for 24 hrs by broth microdilution method; assay type: functional
[2] = tested on: Staphylococcus aureus; assay: Antimicrobial activity against methicillin-resistant Staphylococcus aureus USA300 LAC incubated for 24 hrs by broth microdilution method; assay type: functional
[3] = tested on: Staphylococcus aureus; assay: Antibacterial activity against vancomycin-susceptible methicillin-susceptible Staphylococcus aureus Newman incubated for 24 hrs by broth microdilution method; assay type: functional
[4] = tested on: Staphylococcus aureus; assay: Antimicrobial activity against methicillin-resistant Staphylococcus aureus USA400 MW2 incubated for 24 hrs by broth microdilution method; assay type: functional
[5] = tested on: Staphylococcus aureus; assay: Antimicrobial activity against methicillin-resistant Staphylococcus aureus NRS100 incubated for 24 hrs by broth microdilution method; assay type: functional
[6] = tested on: Enterococcus faecalis; assay: Antibacterial activity against vancomycin-resistant, teicoplanin sensitive Enterococcus faecalis VanB01 incubated for 24 hrs by broth microdilution method; assay type: functional
[7] = tested on: Enterococcus faecalis; assay: Antibacterial activity against vancomycin-resistant, teicoplanin resistant Enterococcus faecalis HS06188 incubated for 24 hrs by broth microdilution method; assay type: functional
[8] = tested on: Staphylococcus aureus; assay: Antimicrobial activity against methicillin and linezoid-resistant Staphylococcus aureus NRS271 incubated for 24 hrs by broth microdilution method; assay type: functional
[9] = tested on: Enterococcus faecalis; assay: Antibacterial activity against vancomycin-resistant, teicoplanin resistant Enterococcus faecalis HS0649 incubated for 24 hrs by broth microdilution method; assay type: functional
[10] = tested on: Enterococcus faecalis; assay: Antibacterial activity against vancomycin-resistant, teicoplanin sensitive Enterococcus faecalis HS0847 incubated for 24 hrs by broth microdilution method; assay type: functional
[11] = tested on: Enterococcus faecalis; assay: Antibacterial activity against vancomycin-resistant, teicoplanin sensitive Enterococcus faecalis HS08257 incubated for 24 hrs by broth microdilution method; assay type: functional
[12] = tested on: Staphylococcus aureus; assay: Antibiofilm activity against methicillin-resistant Staphylococcus aureus USA300 LAC assessed as decrease in biofilm formation at 0.0625 ug/ml measured by crystal violet staining assay; assay type: functional, organism-based; details: dose 0.0625 µg/ml
[13] = Metabolic stability in monkey liver microsomes assessed metabolic bioavailability at 0.1 uM in presence of NADPH measured by LC-MS/MS analysis; assay type: ADME, Macaca mulatta, Microsome; details: rhesus monkey, read-out: Stability
[14] = Metabolic stability in human liver microsomes assessed metabolic bioavailability at 0.1 uM in presence of NADPH measured by LC-MS/MS analysis; assay type: ADME, Microsome; details: read-out: Stability
[15] = Metabolic stability in mouse liver microsomes assessed metabolic bioavailability at 0.1 uM in presence of NADPH measured by LC-MS/MS analysis; assay type: ADME, Microsome; details: read-out: Stability
[16] = Cytotoxicity against human L02 cells after 72 hrs by CCK-8 assay; assay type: toxicity, cell-based
[17] = Selectivity index, ratio of IC50 for L02 cell cytotoxicity over MIC for vancomycin-susceptible methicillin-susceptible Staphylococcus aureus Newman; assay type: toxicity; details: human, L02 cells
[18] = Metabolic stability in dog liver microsomes assessed metabolic bioavailability at 0.1 uM in presence of NADPH measured by LC-MS/MS analysis; assay type: ADME, Canis lupus familiaris, Microsome; details: read-out: Stability

Row | Compound | MIC [1] [µg/mL] | MIC [2] [µg/mL] | MIC [3] [µg/mL] | other results
1 | O=C1c2[nH]nc(C(F)(F)F)c2S(=O)(=O)c2c(Cl)cc(Cl)c(O)c21 | 256 (≈ 661 µM) | 256 (≈ 661 µM) | 128 (≈ 331 µM) | –
2 | O=C(c1cc(C(F)(F)F)n[nH]1)c1cc(Cl)c(F)cc1O | 0.25 (≈ 0.81 µM) | 0.25 (≈ 0.81 µM) | 0.25 (≈ 0.81 µM) | MIC [4]: 0.25 µg/mL (≈ 0.81 µM); MIC [5]: 0.25 µg/mL (≈ 0.81 µM); MIC [6]: 1 µg/mL (≈ 3.24 µM); MIC [7]: > 128 µg/mL; MIC [8]: > 128 µg/mL; MIC [9]: 1 µg/mL (≈ 3.24 µM); MIC [10]: 0.5 µg/mL (≈ 1.62 µM); MIC [11]: 0.5 µg/mL (≈ 1.62 µM)
3 | N#Cc1n[nH]c2c1S(=O)(=O)c1ccccc1C2=O | > 256 | > 256 | > 256 | –
4 | Cc1n[nH]c2c(=O)c3c(O)c(Cl)cc(Cl)c3oc12 | > 256 | > 256 | > 256 | –
5 | COC(=O)c1n[nH]c2c(=O)c3c(O)c(Cl)cc(Cl)c3oc12 | 16 (≈ 48.6 µM) | 16 (≈ 48.6 µM) | 4 (≈ 12.2 µM) | –
6 | O=C(c1cc(C(F)(F)F)n[nH]1)c1cc(F)c(F)cc1O | 1 (≈ 3.42 µM) | 0.5 (≈ 1.71 µM) | 0.5 (≈ 1.71 µM) | –
7 | N#Cc1cc(C(=O)c2cc(Cl)cc(Cl)c2O)[nH]n1 | 2 (≈ 7.09 µM) | 2 (≈ 7.09 µM) | 2 (≈ 7.09 µM) | –
8 | NC(=O)c1n[nH]c2c(=O)c3c(O)c(Cl)cc(Cl)c3oc12 | > 256 | > 256 | > 256 | –
9 | O=c1c2[nH]nc(C(F)(F)F)c2oc2c(Cl)cc(Cl)c(O)c12 | 1 (≈ 2.95 µM) | 2 (≈ 5.9 µM) | 1 (≈ 2.95 µM) | –
10 | N#Cc1n[nH]c2c(=O)c3ccccc3sc12 | 32 (≈ 141 µM) | 32 (≈ 141 µM) | 8 (≈ 35.2 µM) | –
11 | O=c1c2[nH]nc(C(F)(F)F)c2sc2c(Cl)cc(Cl)c(O)c12 | 1 (≈ 2.82 µM) | 2 (≈ 5.63 µM) | 2 (≈ 5.63 µM) | –
12 | O=C(O)c1n[nH]c2c(=O)c3c(O)c(Cl)cc(Cl)c3oc12 | > 256 | > 256 | > 256 | –
13 | N#Cc1cc(C(=O)c2cc(Cl)c(Cl)cc2O)[nH]n1 | 0.25 (≈ 0.886 µM) | 0.25 (≈ 0.886 µM) | 0.25 (≈ 0.886 µM) | MIC [4]: < 0.125 µg/mL; MIC [5]: 0.5 µg/mL (≈ 1.77 µM); Activity [12]: Active; MIC [6]: 1 µg/mL (≈ 3.55 µM); MIC [7]: > 128 µg/mL; Fh at 0.1 µM [13]: 85.6%; Fh at 0.1 µM [14]: 69.7%; Fh at 0.1 µM [15]: 10.2%; MIC [8]: 1 µg/mL (≈ 3.55 µM); IC50 at 72 h [16]: 10.7 µM and 3.02 µg/mL; MIC [9]: 0.5 µg/mL (≈ 1.77 µM); selectivity ratio [17]: > 12; MIC [10]: 0.5 µg/mL (≈ 1.77 µM); MIC [11]: 0.25 µg/mL (≈ 0.886 µM); Fh at 0.1 µM [18]: 9.79%
14 | Cc1cc(C(=O)c2cc(C#N)n[nH]2)c(O)cc1F | 0.25 (≈ 1.02 µM) | 0.5 (≈ 2.04 µM) | 0.5 (≈ 2.04 µM) | –
15 | O=C1c2ccccc2S(=O)(=O)c2c(C(F)(F)F)n[nH]c21 | > 256 | > 256 | > 256 | –
16 | O=c1c2ccccc2sc2c(C(F)(F)F)n[nH]c12 | > 256 | > 256 | > 256 | –
17 | O=C(O)c1cn(C2CC2)c2cc(N3CCNCC3)c(F)cc2c1=O [CIPROFLOXACIN] | 32 (≈ 96.6 µM) | 2 (≈ 6.04 µM) | 0.25 (≈ 0.754 µM) | IC50 at 72 h [16]: 12.2 µM and 4.05 µg/mL
18 | N#Cc1cc(C(=O)c2cc(Cl)c(F)cc2O)[nH]n1 | 0.5 (≈ 1.88 µM) | 0.5 (≈ 1.88 µM) | 0.5 (≈ 1.88 µM) | –
19 | O=C(c1cc(C(F)(F)F)n[nH]1)c1cc(Cl)c(Cl)cc1O | 0.0312 (≈ 0.0961 µM) | 0.0625 (≈ 0.192 µM) | 0.0625 (≈ 0.192 µM) | MIC [4]: 0.25 µg/mL (≈ 0.769 µM); MIC [5]: 0.5 µg/mL (≈ 1.54 µM); Activity [12]: Active; MIC [6]: 0.5 µg/mL (≈ 1.54 µM); MIC [7]: > 128 µg/mL; Fh at 0.1 µM [13]: 28.6%; Fh at 0.1 µM [14]: 42%; Fh at 0.1 µM [15]: 10.1%; MIC [8]: > 128 µg/mL; IC50 at 72 h [16]: 2.57 µM and 0.84 µg/mL; MIC [9]: 0.5 µg/mL (≈ 1.54 µM); selectivity ratio [17]: > 13; MIC [10]: 0.25 µg/mL (≈ 0.769 µM); MIC [11]: < 0.125 µg/mL; Fh at 0.1 µM [18]: 7.07%
20 | Cc1cc(C(=O)c2cc(C(F)(F)F)n[nH]2)c(O)cc1F | 1 (≈ 3.47 µM) | 0.25 (≈ 0.867 µM) | 0.25 (≈ 0.867 µM) | –
21 | N#Cc1n[nH]c2c(=O)c3c(O)c(Cl)cc(Cl)c3oc12 | 8 (≈ 27 µM) | 8 (≈ 27 µM) | 4 (≈ 13.5 µM) | –
22 | N#Cc1n[nH]c2c(=O)c3c(O)c(Cl)cc(Cl)c3sc12 | 2 (≈ 6.41 µM) | 2 (≈ 6.41 µM) | 2 (≈ 6.41 µM) | –
23 | CN[C@H](CC(C)C)C(=O)N[C@H]1C(=O)N[C@@H](CC(N)=O)C(=O)N[C@H]2C(=O)N[C@H]3C(=O)N[C@H](C(=O)N[C@H](C(=O)O)c4cc(O)cc(O)c4-c4cc3ccc4O)[C@H](O)c3ccc(c(Cl)c3)Oc3cc2cc(c3O[C@@H]2O[C@H](CO)[C@@H](O)[C@H](O)[C@H]2O[C@H]2C[C@](C)(N)[C@H](O)[C@H](C)O2)Oc2ccc(cc2Cl)[C@H]1O [VANCOMYCIN] | 8 (≈ 5.52 µM) | – | – | MIC [4]: < 0.125 µg/mL; MIC [6]: 0.25 µg/mL (≈ 0.173 µM); MIC [7]: 2 µg/mL (≈ 1.38 µM); IC50 at 72 h [16]: > 30 µM and > 43 µg/mL; MIC [9]: 0.5 µg/mL (≈ 0.345 µM); MIC [10]: 0.25 µg/mL (≈ 0.173 µM); MIC [11]: < 0.125 µg/mL
